The subject of test [1] is filtered, plasma-free human platelets. The test is described as follows: inhibition of aggregation of filtered human platelets after ADP or thrombin stimulation. Type of test: cell-based. The following applies: Platelet. As for the experimental part:
(§1) The compounds of the formula I are in particular tested for their inhibiting action in blood platelet aggregation and the adhesion of fibrinogen to blood platelets. The measurement of aggregation and the binding of ^125 I-fibrinogen is carried out on filtered, plasma-free human platelets. Platelet activation is effected by means of ADP or thrombin.
As a functional test, the inhibition of aggregation of filtered human platelets is measured after ADP or thrombin stimulation by the compounds according to the invention. The IC50 value of inhibition is given.

Test [2] addresses T1, glycoprotein IIb/IIIa localised on blood platelets (fibrinogen receptor) (Homo sapiens, UniProt P05106+P08514).
T1 construct: carried out on filtered, plasma-free human platelets; endogenous in cells; host or cells: filtered, plasma-free human platelets, stimulated with ADP (10 μM)
T1 sequence (P08514 32-887 limits assumed): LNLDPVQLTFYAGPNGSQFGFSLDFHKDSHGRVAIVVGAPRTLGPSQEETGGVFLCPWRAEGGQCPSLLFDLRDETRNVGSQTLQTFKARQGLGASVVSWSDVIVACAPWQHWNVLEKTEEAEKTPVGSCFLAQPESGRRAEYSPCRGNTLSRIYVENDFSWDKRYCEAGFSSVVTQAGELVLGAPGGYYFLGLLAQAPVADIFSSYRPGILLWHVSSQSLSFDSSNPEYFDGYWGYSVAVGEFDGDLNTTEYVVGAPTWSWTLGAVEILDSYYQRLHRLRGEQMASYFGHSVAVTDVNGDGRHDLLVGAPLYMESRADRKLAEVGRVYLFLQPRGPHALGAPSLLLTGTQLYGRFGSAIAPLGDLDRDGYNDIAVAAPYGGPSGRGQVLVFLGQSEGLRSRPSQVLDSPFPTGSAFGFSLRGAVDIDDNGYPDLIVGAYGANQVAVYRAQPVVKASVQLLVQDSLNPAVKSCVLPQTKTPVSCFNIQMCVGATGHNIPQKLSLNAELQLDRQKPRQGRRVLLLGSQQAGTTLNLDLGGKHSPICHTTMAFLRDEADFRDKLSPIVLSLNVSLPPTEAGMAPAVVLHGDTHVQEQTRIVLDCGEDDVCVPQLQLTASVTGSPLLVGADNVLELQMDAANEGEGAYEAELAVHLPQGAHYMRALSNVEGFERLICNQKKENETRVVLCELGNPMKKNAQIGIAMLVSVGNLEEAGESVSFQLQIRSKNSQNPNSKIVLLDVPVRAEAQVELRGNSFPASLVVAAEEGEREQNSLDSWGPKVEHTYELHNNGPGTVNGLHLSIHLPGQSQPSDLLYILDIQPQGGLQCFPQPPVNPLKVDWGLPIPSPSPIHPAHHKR
T1 sequence (P05106 27-788): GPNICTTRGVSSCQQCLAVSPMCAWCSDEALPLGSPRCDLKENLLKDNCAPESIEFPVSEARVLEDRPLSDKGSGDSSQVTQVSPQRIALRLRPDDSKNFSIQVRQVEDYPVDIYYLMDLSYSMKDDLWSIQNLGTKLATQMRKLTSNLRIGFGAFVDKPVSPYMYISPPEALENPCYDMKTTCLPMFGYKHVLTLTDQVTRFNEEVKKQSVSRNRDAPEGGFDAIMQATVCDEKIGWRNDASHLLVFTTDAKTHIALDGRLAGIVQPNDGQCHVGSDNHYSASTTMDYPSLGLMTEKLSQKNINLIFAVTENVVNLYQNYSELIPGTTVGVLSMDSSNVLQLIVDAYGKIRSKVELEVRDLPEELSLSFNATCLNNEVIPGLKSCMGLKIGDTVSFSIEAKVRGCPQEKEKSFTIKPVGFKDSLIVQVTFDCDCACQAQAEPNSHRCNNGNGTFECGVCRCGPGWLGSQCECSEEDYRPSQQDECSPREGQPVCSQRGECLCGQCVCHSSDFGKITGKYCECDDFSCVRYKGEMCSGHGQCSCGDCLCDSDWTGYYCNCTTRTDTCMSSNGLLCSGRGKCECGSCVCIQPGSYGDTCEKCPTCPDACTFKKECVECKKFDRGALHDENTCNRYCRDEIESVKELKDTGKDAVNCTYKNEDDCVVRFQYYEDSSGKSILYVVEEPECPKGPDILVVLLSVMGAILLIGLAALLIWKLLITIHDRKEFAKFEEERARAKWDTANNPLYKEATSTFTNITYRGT
The test can be described thus: inhibition of binding of ^125 I-fibrinogen to human platelets after stimulation with ADP. The note with it: after stimulation with ADP (10 μM).
Text: Integrins are cell membrane glycoproteins and mediate cell adhesion by interaction with a large number of extracelluar proteins, such as fibronectin, laminin, fibrinogen, collagen, vitronectin, and yon Willebrand factor or with other cell membrane proteins, such as, for example, ICAM-1. An important receptor of the integrin family is glycoprotein IIb/IIIa localised on blood platelets (fibrinogen receptor)--a key protein in platelet-platelet interaction and thrombus formation. A central fragment in the receptor recognition sequence of these proteins is the tripeptide Arg--Gly--Asp (E. Ruoslahti and M. D. Pierschbacher, Science 238 (1987) 491-497; D. R. Phillips, I. F. Charo, L. V. Parise and L. A. Fitzgerald, Blood 71 (1988) 831-843).
as §1
The Ki value of the inhibition of binding of ^125 I-fibrinogen after stimulation with ADP (10 μm) is given.
Reference: J. S. Bennett and G. Vilaire, J. Clin. Invest. 64, (1979), 1393-1401.

Setting [3] is: ADP stimulation, read-out: Inhibition of platelet aggregation ADP, IC50 value of inhibition.
Setting [4] is: thrombin stimulation, read-out: Inhibition of platelet aggregation Thrombin, IC50 value of inhibition.

Read-outs that look alike come from different tables or passages of the source.

As to `CN(CC(=O)N[C@@H](CC(=O)O)C(=O)NC(c1ccccc1)c1ccccc1)C(=O)[C@H]1CC[C@H](CNC(=N)N)CC1` [Example 12, trans-4 -Guanidinomethylcyclohexanecarboxylsarcosyl-L-aspartylbenzhydrylamide], the figures for the half-maximal inhibitory concentration (IC50) in test [1] (setting [3]) and in test [1] (setting [4]) were 8 µM and 4 µM, respectively. Moreover, in test [2], the affinity corresponds to a Ki of 3.1 µM.
The corresponding values for `CN(CC(=O)N[C@@H](CC(=O)O)C(=O)NCCC(c1ccccc1)c1ccccc1)C(=O)c1ccc(CNC(=N)N)cc1` [Example 9, p-Guanidinomethylbenzoylsarcosyl-L-aspartyl-3,3-diphenylpropylamide] are 2 µM, 2 µM and 1.8 µM.
For the compound `N=C(N)N1CCC(Cc2ccc(C(=O)N[C@@H](CC(=O)O)C(=O)NCCC(c3ccccc3)c3ccccc3)cc2)CC1` [Example 3], the values for the IC50 in test [1] (setting [3]) and in test [1] (setting [4]) were 15 µM and 5 µM, respectively.
With `CC(C)[C@H](NC(=O)[C@H](CC(=O)O)NC(=O)c1ccc(OC2CCN(C(=N)N)CC2)cc1)C(=O)O` [Example 14, p-(4-N-Amidinopiperidinyloxy)benzoyl-L-aspartyl-L-valine], the IC50 (usually the point on the concentration scale where inhibition reaches its midpoint) in test [1] (setting [3]) worked out at 4.5 µM; in test [1] (setting [4]) it was 1.5 µM. In test [2], the Ki – broadly, a measure of affinity in units of concentration, obtained from inhibition or displacement – turned out to be 0.8 µM.
`N=C(N)N1CCC(Cc2ccc(C(=O)N[C@@H](CC(=O)O)C(=O)NC3CCCCC3)cc2)CC1` [Example 2, p-(4-(N-Amidinopiperidinyl)methyl)benzoyl-L-aspartylcyclohexylamide]: the IC50 came out at 15 µM in test [1] (setting [3]) and 10 µM in test [1] (setting [4]).
For `CC(C)NC(=O)[C@H](CC(=O)O)NC(=O)c1ccc(CC2CCN(C(=N)N)CC2)cc1` [Example 4], the IC50 in test [1] (setting [3]) was determined as 20 µM; in test [1] (setting [4]) it was 15 µM. This compound also returned a Ki in test [2] of 10 µM.
As to `CC(C)[C@H](NC(=O)[C@H](CC(=O)O)NC(=O)c1ccc(CC2CCN(C(=N)N)CC2)cc1)C(=O)O` [Example 1, p-(4-(N-Amidinopiperidinyl)methyl)benzoyl-L-aspartyl-L-valine], the IC50 worked out at 8 µM in test [1] (setting [3]) and 2 µM in test [1] (setting [4]).

The values are drawn from US5399570A, “Aspartic acid derivatives, and their use for inhibiting platelete aggregation” (Cassella Aktiengesellschaft, priority 1992, dated 1995).
